According to patent US20070048247A1, “Deodorizing tablets” (Kimberly-Clark Worldwide, Inc., priority 2005, published 2007):

Experiments:
[1] = Redox potential (redox potentiometry); type: physicochemical
Source text: The ability of quinone compounds to accept electrons from another substance (i.e., be reduced) may be quantified using a technique known as redox potentiometry. Redox potentiometry is a technique that measures (in volts) the affinity of a substance for electrons—its electronegativity—compared with hydrogen (which is set at 0). Substances more strongly electronegative than (i.e., capable of oxidizing) hydrogen have positive redox potentials. Substances less electronegative than (i.e., capable of reducing) hydrogen have negative redox potentials. The greater the difference between the redox potentials of two substances (ΔE), the greater the vigor with which electrons will flow spontaneously from the less positive to the more positive (more electronegative) substance. As is well known in the art, redox potential may be measured using any of a variety of commercially available meters, such as an Oxidation Reduction Potential (ORP) tester commercially available from Hanna Instruments, Inc. of Woonsocket, R. I. The redox potential of the quinone compounds may, for instance, be less than about −50 millivolts (mV), in some embodiments less than about −150 mV, in some embodiments less than about −300 mV, and in some embodiments, less than about −500 mV. Although not always the case, the redox potential may vary based on the number and location of functional groups, such as sulfonic acid, on the quinone structure. For example, 2-sulfonic acid anthraquinone has a redox potential of −380 mV; 2,6-disulfonic acid anthraquinone has a redox potential of −325 mV; and 2,7-disulfonic acid anthraquinone has a redox potential of −313 mV. Likewise, 2-sulfonic acid naphthaquinone has a redox potential of −60 mV. The use of other functional groups may also have an affect on the ultimate redox potential of the compound. For example, Acid Blue 25, which also contains amino- and aramid functional groups, has a redox potential of −605 mV.

[2] = Example 7 urine odor panel ranking (16 millimolar); parameters: species or system Human; conditions: 16 millimolar in urine, 1 least, 10 most urine malodor
Description: The effectiveness of various quinone compounds in reducing urine odor was compared. […] Human female urine was initially collected and pooled at Kimberly-Clark Corporation. The pooled urine was added to mason jars in 50-milliliter aliquots using an automated pipette aid. Powders of the aforementioned quinone compounds (commercially available from Sigma-Aldrich Chemical Co., Inc. of St. Louis, Missouri and Noveon Hilton Davis, Inc. of Cincinnati, Ohio) were weighed and placed into the mason jars containing 50 milliliters of urine so that the final concentration of the powder was 16 millimolar (equivalent to 1 wt. %). The mason jars were placed in an incubator overnight at 37° C. The experimental setup is set forth in more detail below in Table 21.
Jars were wrapped in foil and placed in an incubator at 37° C. overnight. The jars were divided into four groups (C-F), each sharing the same control jar of urine alone (no powder). Assessments were conducted the following day by asking panelists to rate each jar from 1 (least urine malodor) to 10 (most urine malodor).

[3] = Example 5 urine odor panel ranking; parameters: species or system Human
Description: Assessments were conducted the following day by asking panelists to rate each jar from 1 (least urine malodor) to 8 (most urine malodor). The results are set forth below in Tables 15-18.

[4] = Example 3 secondary (non-urine) odor ranking; parameters: species or system Human; conditions: individual panelist scores, scale 1 to 5, 5 extremely unpleasant
Description: (§1) The effectiveness of various quinone compounds in reducing urine odor was compared. […] Human female urine was initially collected and pooled by a nurse on staff at Kimberly-Clark Corporation. The pooled urine was added to mason jars in 50-milliliter aliquots using an automated pipette aid. […] The mason jars were placed in an incubator overnight at 37° C.
(§2) In addition to ranking the jars from least to most malodorous (on a scale from 1 to 7, with 7 being the most malodors), panelists were also asked to judge whether there were secondary (non-urine) odors present and, if so, the extent that the secondary odors were unpleasant (on a scale from 1 to 5, with 5 being extremely unpleasant).

[5] = Example 3 urine odor panel ranking; parameters: species or system Human; conditions: for Average Urine Odor Ranking (with statistical corrections), Avg. Score: ignoring statistical anomalies
Description: as §1, §2
In this assessment, panelists were given instructions to rank the least malodorous jar as “1” and the most malodorous jar as “10,” remaining free to rank the other jars between 2-9.

[6] = Solubility of powder in urine
[7] = Example 1 urine odor panel ranking; parameters: species or system Human; conditions: 8 millimolar in urine; for Avg. Ranking (odor) / Ranking 4 (number of panelists) / Ranking 5 (number of panelists) / Ranking 1 (number of panelists) / Ranking 3 (number of panelists) / Ranking 7 (number of panelists): 1 least, 10 most malodorous
Source text: Human female urine was initially collected and pooled by a nurse on staff at Kimberly-Clark Corporation. […] Powders of Acid Blue 129 and Acid Green 27 (commercially available from Sigma-Aldrich Chemical Co., Inc. of St. Louis, Mo.), as well as D&C Green No. 5 (commercially available from Noveon Hilton Davis, Inc. of Cincinnati, Ohio), were then weighed and placed into the mason jars containing 50 milliliters of urine so that the final concentration of the powder was 8 millimolar (equivalent to 0.5 wt. %). […] A score of “10” was assigned to the most malodorous jar and a score of “1” was assigned to the least malodorous jar.

[8] = Example 6 urine odor panel ranking; parameters: species or system Human; conditions: as Example 5, 1 least, 8 most urine malodor
Source text: The quinone compounds chosen for this example were Alizarin Blue Black B, Remazol Brilliant Blue R and Acid Green 25. The results are set forth below in Tables 19 and 20.

[9] = Example 5 Group A, 8 mM in urine, 1 least, 8 most urine malodor
[10] = Example 3 top performers, after 24 hours
[11] = Example 3 second grouping, 8 millimolar in urine, 1 least malodorous
[12] = Example 3 top performers of both groupings, after 24 hours, 1 least, 10 most malodorous
[13] = Example 3 top performers, after 24 hours, 1 least, 10 most malodorous
[14] = Example 5, 8 mM in 50 milliliters of urine
[15] = Example 7, 16 mM in 50 milliliters of urine
[16] = Example 3 first grouping, 8 millimolar in urine, scale 1 to 7, 7 most malodorous
[17] = Example 5 Group B, 8 mM in urine, 1 least, 8 most urine malodor

`O=C1c2ccc(S(=O)(=O)O)cc2C(=O)c2ccc(S(=O)(=O)O)cc21` [2,6-disulfonic acid anthraquinone] showed a redox potential [1] of −325 mV.

For `CCCCc1ccc(Nc2ccc(Nc3ccc(CCCC)cc3S(=O)(=O)[O-])c3c2C(=O)c2ccccc2C3=O)c(S(=O)(=O)[O-])c1.[Na+].[Na+]` [Acid Green 27], the “Average Rankings (Group E), Avg. Score” value ([2]; Example 7 Group E) was 6.2, the “Urine Odor Ranking 1 (number of panelists)” value ([2]; Example 7 Group E) was 1 and the “Urine Odor Ranking 5 (number of panelists)” value ([2]; Example 7 Group E) was 1. The “Urine Odor Ranking 7 (number of panelists)” value ([2]; Example 7 Group E) was 1, the “Urine Odor Ranking 8 (number of panelists)” value ([2]; Example 7 Group E) was 1 and the “Urine Odor Ranking 10 (number of panelists)” value ([2]; Example 7 Group E) was 1. The “Average Rankings (Group A), Avg. Score” value [3, 9] was 4.25, the “Urine Odor Ranking 3 (number of panelists)” value [3, 9] was 1 and the “Urine Odor Ranking 4 (number of panelists)” value [3, 9] was 2. For the same molecule, the “Urine Odor Ranking 6 (number of panelists)” value [3, 9] was 1, the “Secondary Odor Ranking” value ([4]; Example 3 second grouping) was 2 and the “Secondary Odor Ranking” value [4, 10] was 4. For the same molecule, the “Average Urine Odor Ranking, Avg. Score” value [5, 11] was 3.6, the “Urine Odor Ranking 2 (number of panelists)” value [5, 11] was 2 and the “Urine Odor Ranking 4 (number of panelists)” value [5, 11] was 1. For the same molecule, the “Urine Odor Ranking 5 (number of panelists)” value [5, 11] was 2, the “Urine Odor Ranking 2 (number of panelists)” value [5, 12] was 1 and the “Urine Odor Ranking 8 (number of panelists)” value [5, 12] was 2. The “Urine Odor Ranking 9 (number of panelists)” value [5, 12] was 1, the “Urine Odor Ranking 10 (number of panelists)” value [5, 12] was 1 and the “Average Urine Odor Ranking, Avg. Score” value [5, 13] was 6.4. The “Average Urine Odor Ranking (with statistical corrections), Avg. Score” value [5, 10] was 8.8, the “Soluble?” value [6, 14] was “Mostly” and the “Soluble?” value [6, 15] was “Mostly”. The “reducing urine malodor (in words)” value [7] was “functioned effectively in reducing urine malodor”, the “Avg. Ranking (odor)” value ([7]; after 6 hours) was 4.4 and the “Ranking 4 (number of panelists)” value ([7]; after 6 hours) was 3. For the same molecule, the “Ranking 5 (number of panelists)” value ([7]; after 6 hours) was 2, the “Avg. Ranking (odor)” value ([7]; after 24 hours) was 4.5 and the “Ranking 1 (number of panelists)” value ([7]; after 24 hours) was 1. The “Ranking 3 (number of panelists)” value ([7]; after 24 hours) was 2 and the “Ranking 7 (number of panelists)” value ([7]; after 24 hours) was 3.

In the case of `Cc1ccc(Nc2ccc(Nc3ccc(C)cc3S(=O)(=O)[O-])c3c2C(=O)c2c(O)ccc(O)c2C3=O)c(S(=O)(=O)[O-])c1.[Na+].[Na+]` [Acid Green 41], the “Average Rankings (Group D), Avg. Score” value ([2]; Example 7 Group D) was 1.4, the “Urine Odor Ranking 1 (number of panelists)” value ([2]; Example 7 Group D) was 4 and the “Urine Odor Ranking 3 (number of panelists)” value ([2]; Example 7 Group D) was 1. The “Average Rankings (Group A), Avg. Score” value [3, 9] was 4.25, the “Urine Odor Ranking 2 (number of panelists)” value [3, 9] was 1 and the “Urine Odor Ranking 3 (number of panelists)” value [3, 9] was 1. For the same molecule, the “Urine Odor Ranking 5 (number of panelists)” value [3, 9] was 1, the “Urine Odor Ranking 7 (number of panelists)” value [3, 9] was 1 and the “Secondary Odor Ranking” value ([4]; Example 3 first grouping) was 1. For the same molecule, the “urine odor reduction (in words)” value ([5]; Example 3 first grouping) was “functioned effectively to reduce odor”, the “Average Urine Odor Ranking, Avg. Score” value [5, 16] was 2.4 and the “Urine Odor Ranking 1 (number of panelists)” value [5, 16] was 1. For the same molecule, the “Urine Odor Ranking 2 (number of panelists)” value [5, 16] was 2, the “Urine Odor Ranking 3 (number of panelists)” value [5, 16] was 1 and the “Urine Odor Ranking 4 (number of panelists)” value [5, 16] was 1. The “Urine Odor Ranking 1 (number of panelists)” value [5, 12] was 1, the “Urine Odor Ranking 2 (number of panelists)” value [5, 12] was 2 and the “Urine Odor Ranking 3 (number of panelists)” value [5, 12] was 1. For the same molecule, the “Urine Odor Ranking 7 (number of panelists)” value [5, 12] was 1, the “odor reduction (in words)” value [5, 10] was “achieved the best odor reduction” and the “Average Urine Odor Ranking, Avg. Score” value [5, 13] was 3.0. The “Average Urine Odor Ranking (with statistical corrections), Avg. Score” value [5, 10] was 2.0, the “Soluble?” value [6, 14] was “Yes” and the “Soluble?” value [6, 15] was “Yes”. For the same molecule, the “Average Rankings, Avg. Score” value [8] was 5.25, the “Urine Odor Ranking 3 (number of panelists)” value [8] was 1 and the “Urine Odor Ranking 4 (number of panelists)” value [8] was 1. For the same molecule, the “Urine Odor Ranking 6 (number of panelists)” value [8] was 1 and the “Urine Odor Ranking 8 (number of panelists)” value [8] was 1.

In the case of `Cc1ccc(Nc2ccc(Nc3ccc(C)cc3S(=O)(=O)[O-])c3c2C(=O)c2ccccc2C3=O)c(S(=O)(=O)[O-])c1.[Na+].[Na+]` [D&C Green No. 5], the “Average Rankings (Group D), Avg. Score” value ([2]; Example 7 Group D) was 7, the “Urine Odor Ranking 5 (number of panelists)” value ([2]; Example 7 Group D) was 2 and the “Urine Odor Ranking 7 (number of panelists)” value ([2]; Example 7 Group D) was 1. The “Urine Odor Ranking 9 (number of panelists)” value ([2]; Example 7 Group D) was 2, the “odor reduction performance (in words)” value ([3]; Example 5 Group B) was “performed well” and the “Average Rankings (Group B), Avg. Score” value [3, 17] was 4.25. The “Urine Odor Ranking 2 (number of panelists)” value [3, 17] was 1, the “Urine Odor Ranking 3 (number of panelists)” value [3, 17] was 1 and the “Urine Odor Ranking 5 (number of panelists)” value [3, 17] was 1. The “Urine Odor Ranking 7 (number of panelists)” value [3, 17] was 1, the “Secondary Odor Ranking” value ([4]; Example 3 second grouping) was 4 and the “Secondary Odor Ranking” value [4, 10] was 4. The “urine odor reduction (in words)” value ([5]; Example 3 second grouping) was “did not perform as well compared to the other quinone compounds”, the “Urine Odor Ranking 4 (number of panelists)” value [5, 11] was 3 and the “Urine Odor Ranking 5 (number of panelists)” value [5, 11] was 2. For the same molecule, the “Urine Odor Ranking 2 (number of panelists)” value [5, 12] was 1, the “Urine Odor Ranking 4 (number of panelists)” value [5, 12] was 1 and the “Urine Odor Ranking 7 (number of panelists)” value [5, 12] was 2. The “Urine Odor Ranking 10 (number of panelists)” value [5, 12] was 1, the “Average Urine Odor Ranking, Avg. Score” value [5, 13] was 6.0 and the “Average Urine Odor Ranking (with statistical corrections), Avg. Score” value [5, 10] was 7.0. For the same molecule, the “Soluble?” value [6, 14] was “Yes”, the “Soluble?” value [6, 15] was “Yes” and the “reducing urine malodor (in words)” value [7] was “functioned effectively in reducing urine malodor”. The “Avg. Ranking (odor)” value ([7]; after 6 hours) was 3.0, the “Ranking 1 (number of panelists)” value ([7]; after 6 hours) was 1 and the “Ranking 3 (number of panelists)” value ([7]; after 6 hours) was 3. The “Ranking 5 (number of panelists)” value ([7]; after 6 hours) was 1, the “Avg. Ranking (odor)” value ([7]; after 24 hours) was 5.2 and the “Ranking 4 (number of panelists)” value ([7]; after 24 hours) was 3. For the same molecule, the “Ranking 5 (number of panelists)” value ([7]; after 24 hours) was 1, the “Ranking 7 (number of panelists)” value ([7]; after 24 hours) was 2 and the “Average Rankings, Avg. Score” value [8] was 6.25. The “Urine Odor Ranking 5 (number of panelists)” value [8] was 2, the “Urine Odor Ranking 7 (number of panelists)” value [8] was 1 and the “Urine Odor Ranking 8 (number of panelists)” value [8] was 1.
